The source of these data is US6175013A, “Imidazolinyl tachykinin receptor antagonists” (Eli Lilly and Company, priority 1994, dated 2001).

Structures are written as SMILES.

In one test the target is T1, human NK-2 receptor (Homo sapiens, UniProt P21452).
T1 construct: expressed in transfected cells; host or cells: CHO-hNK-2R cells (CHO-derived)
T1 sequence (P21452 1-398): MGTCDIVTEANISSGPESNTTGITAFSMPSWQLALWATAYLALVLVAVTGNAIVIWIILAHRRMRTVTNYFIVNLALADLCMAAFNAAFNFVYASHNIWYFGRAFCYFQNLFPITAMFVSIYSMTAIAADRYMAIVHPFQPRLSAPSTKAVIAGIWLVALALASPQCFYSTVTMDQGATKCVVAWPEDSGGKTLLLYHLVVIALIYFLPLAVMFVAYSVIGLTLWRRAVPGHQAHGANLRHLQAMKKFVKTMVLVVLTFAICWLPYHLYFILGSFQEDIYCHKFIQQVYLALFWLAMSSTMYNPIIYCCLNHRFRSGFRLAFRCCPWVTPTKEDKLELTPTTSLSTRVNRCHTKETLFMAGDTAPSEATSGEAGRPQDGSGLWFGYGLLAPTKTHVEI
The test is described as follows: NK-2 Receptor Binding Assay ([125I]iodohistidyl-neurokinin A, CHO-hNK-2R cell membranes). The conditions noted are these: CHO-hNK-2R membranes, 20 pM [125I]iodohistidyl-neurokinin A; for IC50: 1 hr room temperature, read-out: IC50, inhibition of binding of neurokinin A. How it is done:
(§1) The biological activity of the compounds of the present invention was evaluated employing an initial screening assay which rapidly and accurately measured the binding of the tested compound to known NK-1 and NK-2 receptor sites. Assays useful for evaluating tachykinin receptor antagonists are well known in the art. See, e.g., J. Jukic, et al., Life Sciences, 49:1463-1469 (1991); N. Kucharczyk, et al., Journal of Medicinal Chemistry, 36:1654-1661 (1993); N. Rouissi, et al., Biochemical and Bioohysical Research Communications, 176:894-901 (1991).
NK-2 Receptor Binding Assay
The CHO-hNK-2R cells, a CHO-derived cell line transformed with the human NK-2 receptor, expressing about 400,000 such receptors per cell, were grown in 75 cm^2 flasks or roller bottles in minimal essential medium (alpha modification) with 10% fetal bovine serum. The gene sequence of the human NK-2 receptor is given in N. P. Gerard, et al., Journal of Biological Chemistry, 65:20455-20462 (1990).
For preparation of membranes, 30 confluent roller bottle cultures were dissociated by washing each roller bottle with 10 ml of Dulbecco's phosphate buffered saline (PBS) without calcium and magnesium, followed by addition of 10 ml of enzyme-free cell dissociation solution (PBS-based, from Specialty Media, Inc.). After an additional 15 minutes, the dissociated cells were pooled and centrifuged at 1,000 RPM for 10 minutes in a clinical centrifuge. Membranes were prepared by homogenization of the cell pellets in 300 ml 50 mM Tris buffer, pH 7.4 with a Tekmar® homogenizer for 10-15 seconds, followed by centrifugation at 12,000 RPM (20,000×g) for 30 minutes using a Beckman JA-14® rotor. The pellets were washed once using the above procedure. and the final pellets were resuspended in 100-120 ml 50 mM Tris buffer, pH 7.4, and 4 ml aliquots stored frozen at -70° C. The protein concentration of this preparation was 2 mg/ml.
For the receptor binding assay, one 4-ml aliquot of the CHO-hNK-2R membrane preparation was suspended in 40 ml of assay buffer containing 50 mM Tris, pH 7.4, 3 mM manganese chloride, 0.02% bovine serum albumin (BSA) and 4 μg/ml chymostatin. A 200 μl volume of the homogenate (40 μg protein) was used per sample. The radioactive ligand was [^125 I]iodohistidyl-neurokinin A (New England Nuclear, NEX-252), 2200 Ci/mmol. […] Non-specific binding was determined using 1 μM eledoisin. […]
All samples and standards were added to the incubation in 10 μl dimethylsulfoxide (DMSO) for screening (single dose) or in 5μl DMSO for IC50 determinations. […] The filter was washed 3 times with approximately 3 ml of cold 50 mM Tris buffer, pH 7.7, The filter circles were then punched into 12×75 mn polystyrene tubes and counted in a gamma counter. […]

For a further test, the target named is T2, NK-1 receptor (Homo sapiens, UniProt P25103).
T2 construct: an aliquot of IM9 cells; endogenous in cells; host or cells: IM9 cells
Nature of the test: NK-1 Receptor Binding Assay (125I-substance P, IM9 cells). Conditions: 20 pM 125I-labeled substance P, 45 minutes at 4° C., may be average of more than one experiment, read-out: IC50, inhibition of binding of substance P. How it is done:
as §1
NK-1 Receptor Binding Assay
Radioreceptor binding assays were performed using a derivative of a previously published protocol. D. G. Payan, et al., Journal of Immunology, 133:3260-3265 (1984). In this assay an aliquot of IM9 cells (1×10^6 cells/tube in […] medium supplemented with 10% fetal calf serum) was incubated with 20 pM ^125 I-labeled substance P in the presence of increasing competitor concentrations for 45 minutes at 4° C.
The IM9 cell line is a well-characterized cell line which is readily available to the public. See, e.g., Annals of the New York Academy of Science, 190: 221-234 (1972); Nature (London), 251:443-444 (1974); Proceedings of the National Academy of Sciences (USA), 71:84-88 (1974). These cells were routinely cultured in RPMI 1640 supplemented with 50 gg/ml gentamicin sulfate and 10% fetal calf serum.
The reaction was terminated by filtration through a glass fiber filter harvesting system using filters previously soaked for 20 minutes in 0.1% polyethylenimine. Specific binding of labeled substance P was determined in the presence of 20 nM unlabeled ligand.
Column 1 provides the example number of the test antagonist compound. The second column depicts the results of the competition assays, detailing the concentration of the test compound (in micromolar quantities) which inhibits fifty percent of the binding of substance P (IC50). Certain values may represent the average of more than one experiment.

T2 sequence (P25103 whole entry): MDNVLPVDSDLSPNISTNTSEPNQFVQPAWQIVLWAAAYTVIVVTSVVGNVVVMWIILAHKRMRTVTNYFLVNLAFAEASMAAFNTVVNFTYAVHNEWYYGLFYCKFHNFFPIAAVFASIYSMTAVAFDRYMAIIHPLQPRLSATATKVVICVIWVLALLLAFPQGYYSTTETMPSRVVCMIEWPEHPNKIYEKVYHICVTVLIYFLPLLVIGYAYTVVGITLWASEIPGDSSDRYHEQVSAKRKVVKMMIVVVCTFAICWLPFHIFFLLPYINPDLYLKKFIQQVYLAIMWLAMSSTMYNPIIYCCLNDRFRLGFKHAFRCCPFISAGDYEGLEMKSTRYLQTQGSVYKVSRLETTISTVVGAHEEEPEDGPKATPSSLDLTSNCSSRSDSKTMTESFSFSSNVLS

The term IC50 denotes the concentration that inhibits the measured activity by half. As to `COc1ccccc1CN1CC(c2ccccc2)N=C1C` (centres unmarked) [Example 1, 1-(2-methoxybenzyl)-2-methyl-4-phenyl-2-imidazoline], the half-maximal inhibitory concentration (IC50) on human NK-2 receptor is 16 µM; on NK-1 receptor it was 180 nM.

With `COc1ccccc1CN1CC(Cc2c[nH]c3ccccc23)N=C1CN1CCN(c2ccccc2)CC1` (centres unmarked) [Example 2, 1-(2-methoxybenzyl)-2-[(4-phenyl-1-piperazinyl)methyl]-4-(1H-indol-3-ylmethyl)-2-imidazoline], the half-inhibitory concentration (IC50) on human NK-2 receptor stood at 0.47 µM; on NK-1 receptor, 120 nM.

Regarding `COc1ccccc1CN1CC(C)(Cc2c[nH]c3ccccc23)N=C1C` (centres unmarked) [Example 3, 1-(2-methoxybenzyl)-2,4-dimethyl-4-(1H-indol-3-ylmethyl)-2-imidazoline], the IC50 at human NK-2 receptor worked out at 9.1 µM; on NK-1 receptor, 560 nM.

Usually inhibition stands for the relative decrease from the control value, in per cent. Take `COc1ccccc1CN1CC(Cc2ccccc2)N=C1C` (centres unmarked) [Example 4, 1-(2-methoxybenzyl)-2-methyl-4-benzyl-2-imidazoline]: at human NK-2 receptor (at 10 μM, read-out: percent inhibition of neurokinin A binding), the inhibition at 10 µM amounted to 21%. The IC50 at NK-1 receptor was determined as 140 nM.
